System: BT20 Cell
Experiment: Cancer Cell Lysate Total L-Glutamate Assay
Assay type: cell-based
Settings: total L-glutamate in cell lysate, BT20 cells, 2 hour incubation with test compound
Experimental: Cancer Cell Lysate Total L-Glutamate Assay
Cancer cell lines (BT20, HCT116, SKOV3, HCC70, SUM149, MDA-MB-231, etc.) were plated in 96 well plates and were used for the total L-glutamate assay when the monolayer was ca. 80% confluent. The media was changed and fresh media containing L-glutamine was added to the 96 well plates, just before incubation of the cells with test compound. The test compound was diluted in 100% DMSO using a two-fold or three-fold serial dilution. Small volumes of the dilutions of test compound were added to the 96 well plates so the final DMSO concentration was 0.5% v/v in the cell culture medium. The cells were incubated at 37° C., 5% CO2, and 95% air for 2 hours. Following the 2 hour incubation, the cells were washed with water 2 times. After the last water wash, 100 μL of 50 mM Tris-HCl pH 7.4 and 0.01% Tween-20 was added to each well and the plate was frozen at −80° C. The 96 well plate was frozen and thawed a total of 3 times and then sonicated for 5 min at 4° C. in a bath sonicator. Following sonication, the 96 well plate was centrifuged for 5 min at 1000 rpm and 10 μL of the supernatant was transferred to a 384 well assay plate.
Total L-glutamate (L-glutamic acid) in the cell lysis supernatant was detected using glutamate oxidase, horseradish peroxidase and Amplex Red reagent (10-acetyl-3,7-dihydroxy phenoxazine, Invitrogen # A22177). In this assay, L-glutamate was oxidized by glutamate oxidase to produce alpha-ketoglutarate (2-oxopentane dioic acid), NH3 and H202. The H2O2 (hydrogen peroxide) was used by horseradish peroxidase (HRP) to oxidize the Amplex Red Reagent to resorufin which is a fluorescent molecule. When resorufin is excited with light with a wavelength 530-560 nm, it emits light at approximately 585 nm. For detection of total L-glutamate in 10 μL of lysate, 15 μL of an enzyme mixture was added to each well of the 384 well assay plate. The enzyme mixture consisted of 50 mM Tris-HCl pH 7.4, 0.01% Tween-20, 50 μM Amplex Red reagent (final concentration), 0.04 U/mL L-glutamate oxidase (final concentration), and 0.125 U/mL HRP (final concentration). The 384 well assay plate was incubated at room temperature for 5 min and then the fluorescence intensity of each well was measured at 585 nm using a 530-560 nm excitation wavelength in a plate based fluorimeter such as an LJL Analyst or a Tecan Infinite plate reader. Standard curves were constructed for this assay using dilutions of a L-glutamate standard. IC50 were calculated by plotting the relative fluorescent units vs log of the inhibitor concentration and fitting the data to the four parameter logistic equation.
Reference: Chapman J. and Zhou M. (1999) Microplate-based fluorometric methods for the enzymatic determination of I-glutamate: application in measuring I-glutamate in food samples. Analytica Chim Acta 402:47-52.

Question: Which IC50 (Homo sapiens, BT-20, 2 h) does the source give for `O=C(Cc1ccccn1)Nc1ccc(CC2CCC(c3nnc(NC(=O)C[C@H]4CCCO4)s3)C2)nn1` (mixture of isomers) [Example 129, (rac)-2-(pyridin-2-yl)-N-(6-{[(cis)-3-(5-{[(2R)-tetrahydrofuran-2-ylacetyl]amino}-1,3,4-thiadiazol-2-yl)cyclopentyl]methyl}pyridazin-3-yl)acetamide] here?
Answer: Its IC50 is 2.2 nM.

Question: With `CC(C)C(=O)Nc1nnc(C[C@H]2C[C@@H](c3nnc(NC(=O)Cc4ccccn4)s3)C2)s1` (single isomer, unassigned) [Example 104, 2-methyl-N-{5-[(cis-3-{5-[(pyridin-2-ylacetyl)amino]-1,3,4-thiadiazol-2-yl}cyclobutyl)methyl]-1,3,4-thiadiazol-2-yl}propanamide] as the molecule, how does the IC50 (Homo sapiens, BT-20, 2 h) read?
Answer: Its IC50 is 8.6 nM.

Question: With `CC(C)C(=O)Nc1ccc([C@H]2C[C@@H](Cc3nnc(NC(=O)Cc4ccccn4)s3)C2)nn1` (single isomer, unassigned) [Example 125, 2-methyl-N-{6-[cis-3-({5-[(pyridin-2-ylacetyl)amino]-1,3,4-thiadiazol-2-yl}methyl)cyclobutyl]pyridazin-3-yl}propanamide] as the molecule, how does the IC50 (Homo sapiens, BT-20, 2 h) read?
Answer: Its IC50 is 3.1 nM.

Question: `CC(=O)Nc1nnc([C@@H]2CC[C@H](Cc3nnc(NC(=O)Cc4cncnc4)s3)C2)s1` (single isomer, unassigned) [Example 50, N-[5-({(cis)-3-[5-(acetylamino)-1,3,4-thiadiazol-2-yl]cyclopentyl}methyl)-1,3,4-thiadiazol-2-yl]-2-(pyrimidin-5-yl)acetamide] was tested. Which IC50 (Homo sapiens, BT-20, 2 h) did it give?
Answer: The IC50 was 8750 nM.

Question: With `O=C(Cc1ccccc1)Nc1ccc(C[C@H]2C[C@@H](c3nnc(NC(=O)Cc4ccccn4)s3)C2)nn1` (single isomer, unassigned) [Example 118, 2-phenyl-N-{6-[(cis-3-{5-[(pyridin-2-ylacetyl)amino]-1,3,4-thiadiazol-2-yl}cyclobutyl)methyl]pyridazin-3-yl}acetamide] as the molecule, how does the IC50 (Homo sapiens, BT-20, 2 h) read?
Answer: Its IC50 is 0.2 nM.

Question: How did the IC50 (Homo sapiens, BT-20, 2 h) turn out when `C[C@H](C(=O)Nc1nnc(C[C@@H]2CC[C@H](c3nnc(NC(=O)[C@@H](C)c4cccnc4)s3)C2)s1)c1cccnc1` (single isomer, unassigned) [Example 33, 2-(pyridin-3-yl)-N-(5-{[(cis)-3-(5-{[2-(pyridin-3-yl)propanoyl]amino}-1,3,4-thiadiazol-2-yl)cyclopentyl]methyl}-1,3,4-thiadiazol-2-yl)propanamide] was run?
Answer: The IC50 was 7 nM.

Question: With `CC(C)(C)C(=O)Nc1nnc(C[C@@H]2CC[C@H](c3nnc(NC(=O)C(C)(C)C)s3)C2)s1` (single isomer, unassigned) [Example 29, N-(5-{[(cis)-3-{5-[(2,2-dimethylpropanoyl)amino]-1,3,4-thiadiazol-2-yl}cyclopentyl]methyl}-1,3,4-thiadiazol-2-yl)-2,2-dimethylpropanamide] as the molecule, how does the IC50 (Homo sapiens, BT-20, 2 h) read?
Answer: Its IC50 is 167 nM.

Question: How did the IC50 (Homo sapiens, BT-20, 2 h) turn out when `Cc1ccc(CC(=O)Nc2nnc([C@H]3C[C@@H](Cc4nnc(NC(=O)Cc5ccccn5)s4)C3)s2)nc1` (single isomer, unassigned) [Example 112, 2-(5-methylpyridin-2-yl)-N-{5-[cis-3-({5-[(pyridin-2-ylacetyl)amino]-1,3,4-thiadiazol-2-yl}methyl)cyclobutyl]-1,3,4-thiadiazol-2-yl}acetamide] was run?
Answer: The IC50 was 0.2 nM.

Question: How did the IC50 (Homo sapiens, BT-20, 2 h) turn out when `O=C(Cc1ccccn1)Nc1nnc(CC2CCC(c3nnc(Nc4ncccn4)s3)C2)s1` (racemic) [Example 83, (rac)-2-(pyridin-2-yl)-N-[5-({(cis)-3-[5-(pyrimidin-2-ylamino)-1,3,4-thiadiazol-2-yl]cyclopentyl}methyl)-1,3,4-thiadiazol-2-yl]acetamide] was run?
Answer: Its IC50 is 2.4 nM.

Question: With `O=C(Cc1ccccn1)Nc1ccc([C@H]2C[C@@H](Cc3nnc(NC(=O)Cc4ccccn4)s3)C2)nn1` (single isomer, unassigned) [Example 124, 2-(pyridin-2-yl)-N-{5-[(cis-3-{6-[(pyridin-2-ylacetyl)amino]pyridazin-3-yl}cyclobutyl)methyl]-1,3,4-thiadiazol-2-yl}acetamide] as the molecule, how does the IC50 (Homo sapiens, BT-20, 2 h) read?
Answer: Its IC50 is 4.7 nM.

Question: With `O=C(Cn1cccn1)Nc1nnc(C[C@H]2CC[C@@H](c3nnc(NC(=O)Cc4ccccn4)s3)C2)s1` (racemic) [Example 142, (rac)-2-(1H-pyrazol-1-yl)-N-(5-{[(cis)-3-{5-[(pyridin-2-ylacetyl)amino]-1,3,4-thiadiazol-2-yl}cyclopentyl]methyl}-1,3,4-thiadiazol-2-yl)acetamide] as the molecule, how does the IC50 (Homo sapiens, BT-20, 2 h) read?
Answer: The IC50 was 13.2 nM.

Question: Which IC50 (Homo sapiens, BT-20, 2 h) does the source give for `Nc1nnc(C[C@H]2CC[C@@H](c3nnc(N)s3)C2)s1` (single isomer, unassigned) [Example 41] here?
Answer: Its IC50 is > 40400 nM.

Question: How did the IC50 (Homo sapiens, BT-20, 2 h) turn out when `O=C(Cc1ccccn1)Nc1ccc(C[C@H]2CC[C@@H](c3nnc(NC(=O)C[C@H]4CCCO4)s3)C2)nn1` (single isomer, unassigned) [Example 131] was run?
Answer: The IC50 was 3.1 nM.

Question: Which IC50 (Homo sapiens, BT-20, 2 h) does the source give for `CC(C)(C)C(=O)Nc1nnc(CC2CCC(c3nnc(NC(=O)C(C)(C)C)s3)C2)s1` (racemic) [Example 27, (rac)-N-(5-{[(cis)-3-{5-[(2,2-dimethylpropanoyl)amino]-1,3,4-thiadiazol-2-yl}cyclopentyl]methyl}-1,3,4-thiadiazol-2-yl)-2,2-dimethylpropanamide] here?
Answer: Its IC50 is 242 nM.

Question: How did the IC50 (Homo sapiens, BT-20, 2 h) turn out when `CCC(=O)Nc1nnc([C@H]2C[C@H](Cc3nnc(NC(=O)Cc4ccccn4)s3)C2)s1` (single isomer, unassigned) [Example 106, N-{5-[trans-3-({5-[(pyridin-2-ylacetyl)amino]-1,3,4-thiadiazol-2-yl}methyl)cyclobutyl]-1,3,4-thiadiazol-2-yl}propanamide] was run?
Answer: The IC50 was 13.7 nM.

Question: With `CC(=O)Nc1nnc(C2CCC(Cc3nnc(N)s3)C2)s1` (racemic) [Example 42, (rac)-N-(5-{(cis)-3-[(5-amino-1,3,4-thiadiazol-2-yl)methyl]cyclopentyl}-1,3,4-thiadiazol-2-yl)acetamide] as the molecule, how does the IC50 (Homo sapiens, BT-20, 2 h) read?
Answer: Its IC50 is 2370 nM.

Question: For `O=C(Cc1ccccn1)Nc1ccc(C[C@@H]2CC[C@H](c3nnc(Nc4ccccn4)s3)C2)nn1` (single isomer, unassigned) [Example 75, 2-(pyridin-2-yl)-N-[6-({(cis)-3-[5-(pyridin-2-ylamino)-1,3,4-thiadiazol-2-yl]cyclopentyl}methyl)pyridazin-3-yl]acetamide], which IC50 (Homo sapiens, BT-20, 2 h) is on record?
Answer: The IC50 was 1.1 nM.

Question: With `O=C(Cc1ccccn1)Nc1nnc(C[C@H]2CC[C@@H](c3nnc(Nc4ccccn4)s3)C2)s1` (single isomer, unassigned) [Example 86, 2-(pyridin-2-yl)-N-[5-({(cis)-3-[5-(pyridin-2-ylamino)-1,3,4-thiadiazol-2-yl]cyclopentyl}methyl)-1,3,4-thiadiazol-2-yl]acetamide] as the molecule, how does the IC50 (Homo sapiens, BT-20, 2 h) read?
Answer: The IC50 was 4.8 nM.

Question: Which IC50 (Homo sapiens, BT-20, 2 h) does the source give for `CC(=O)Nc1ccc(C[C@H]2C[C@@H](c3nnc(NC(=O)Cc4ccccn4)s3)C2)nn1` (single isomer, unassigned) [Example 114, N-[5-(cis-3-{[6-(acetylamino)pyridazin-3-yl]methyl}cyclobutyl)-1,3,4-thiadiazol-2-yl]-2-(pyridin-2-yl)acetamide] here?
Answer: The IC50 was 6.5 nM.

Question: How did the IC50 turn out when `Cn1ccc(CC(=O)Nc2nnc([C@H]3CC4(C[C@H](c5nnc(NC(=O)Cc6ccn(C)n6)s5)C4)C3)s2)n1` (some centres unmarked) [Example 97, N,N′-(spiro[3.3]heptane-2,6-diyldi-1,3,4-thiadiazole-5,2-diyl)bis[2-(1-methyl-1H-pyrazol-3-yl)acetamide]] was run?
Answer: The IC50 was 2.7 nM.

Question: Which IC50 (Homo sapiens, BT-20, 2 h) does the source give for `CCC(=O)Nc1ccc(C[C@@H]2CC[C@H](c3nnc(NC(=O)Cc4ccccn4)s3)C2)nn1` (single isomer, unassigned) [Example 79, N-(6-{[(cis)-3-{5-[(pyridin-2-ylacetyl)amino]-1,3,4-thiadiazol-2-yl}cyclopentyl]methyl}pyridazin-3-yl)propanamide] here?
Answer: Its IC50 is 1.1 nM.

Question: With `Cn1ccc(Nc2nnc([C@H]3CC[C@@H](Cc4nnc(NC(=O)Cc5ccccn5)s4)C3)s2)n1` (single isomer, unassigned) [Example 89, N-(5-{[(cis)-3-{5-[(1-methyl-1H-pyrazol-3-yl)amino]-1,3,4-thiadiazol-2-yl}cyclopentyl]methyl}-1,3,4-thiadiazol-2-yl)-2-(pyridin-2-yl)acetamide] as the molecule, how does the IC50 (Homo sapiens, BT-20, 2 h) read?
Answer: The IC50 was 3.9 nM.

Question: For `O=C(Cc1ccccc1)Nc1ccc(C[C@@H]2CC[C@H](c3nnc(NC(=O)Cc4ccccn4)s3)C2)nn1` (single isomer, unassigned) [Example 82, 2-phenyl-N-(6-{[(cis)-3-{5-[(pyridin-2-ylacetyl)amino]-1,3,4-thiadiazol-2-yl}cyclopentyl]methyl}pyridazin-3-yl)acetamide], which IC50 (Homo sapiens, BT-20, 2 h) is on record?
Answer: The IC50 was 0.1 nM.

Reference: patent US10676471B2, “Cycloalkyl-linked diheterocycle derivatives” (Pfizer Inc., priority 2014, dated 2020)
